According to ChEMBL document CHEMBL1201862, “PubChem BioAssay data set” (2004):
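1) Cells in 96-well plates. 2) Compound, 48 h, 5 concentrations. 3) Linear interpolation between surrounding doses. 4) Unreached endpoint = highest concentration. The concentration for 50% growth inhibition is given as GI50.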 The source made the active and inactive calls. No stated cut-off is given here; in the data, active = GI50 up to about 1.1 µM and inactive = higher.

How the values were obtained:
Test in all cases: growth of human tumour cells (NCI), 48 h
[1] = tested on: DLD-1
[2] = tested on: DMS-273
[3] = tested on: HOP-18
[4] = tested on: KM-20L2
[5] = tested on: LXFL 529
[6] = tested on: SNB-78
[7] = tested on: M19-MEL
[8] = tested on: RXF 631
[9] = tested on: XF498

SMILES: Nc1nc(O)c2[nH]nnc2n1 [8-AZAGUANINE]
- GI50 [1]: 20 µM (inactive)
- GI50 [2]: 0.634 µM (active)
- GI50 [3]: 0.339 µM (active)
- GI50 [4]: 9.2 µM (inactive)
- GI50 [5]: 16.3 µM (inactive)
- GI50 [6]: 1.02 µM (active)

SMILES: O=C(N/C(=C\c1ccc(/C=C(\NC(=O)c2ccccc2)c2nc3ccccc3s2)cc1)c1nc2ccccc2s1)c1ccccc1
- GI50 [1]: 3.28 µM (inactive)
- GI50 [2]: 3.71 µM (inactive)
- GI50 [3]: 13.2 µM (inactive)
- GI50 [4]: 2.19 µM (inactive)
- GI50 [5]: 2.98 µM (inactive)
- GI50 [7]: 4.72 µM (inactive)
- GI50 [8]: 7.96 µM (inactive)
- GI50 [6]: 20.8 µM (inactive)

SMILES: CCC(=O)N(O)C(C)(C)C
- GI50 [1]: > 100 µM (inactive)
- GI50 [4]: > 100 µM (inactive)
- GI50 [5]: > 100 µM (inactive)
- GI50 [7]: > 100 µM (inactive)
- GI50 [6]: > 100 µM (inactive)

SMILES: O=C(Nc1ccc(F)cc1)C(=O)C(C1OC(=O)c2ccccc21)[N+](=O)[O-] (configuration not stated)
- GI50 [1]: > 100 µM (inactive)
- GI50 [4]: > 100 µM (inactive)
- GI50 [5]: > 100 µM (inactive)
- GI50 [7]: > 100 µM (inactive)
- GI50 [6]: > 100 µM (inactive)
- GI50 [9]: > 100 µM (inactive)

SMILES: O=[N+]([O-])c1ccc2nc(/C(=N/Nc3ccccc3)C(O)c3ccco3)c(O)nc2c1 (configuration not stated)
- GI50 [1]: > 100 µM (inactive)
- GI50 [2]: > 100 µM (inactive)
- GI50 [4]: 24.5 µM (inactive)
- GI50 [5]: 42.1 µM (inactive)
- GI50 [7]: 73.5 µM (inactive)
- GI50 [8]: > 100 µM (inactive)
- GI50 [9]: > 100 µM (inactive)

SMILES: Cc1cc(C)c(S(=O)(=O)ONC(=O)OC(C)(C)C)c(C)c1
- GI50 [1]: > 100 µM (inactive)
- GI50 [2]: > 100 µM (inactive)
- GI50 [5]: > 100 µM (inactive)
- GI50 [7]: > 100 µM (inactive)
- GI50 [8]: > 100 µM (inactive)
- GI50 [6]: > 100 µM (inactive)
- GI50 [9]: > 100 µM (inactive)

SMILES: Cc1nc2c(nc1C)C(=O)c1cc(O)ccc1C2=O
- GI50 [1]: > 51.3 µM (inactive)
- GI50 [2]: > 59 µM (inactive)
- GI50 [3]: > 100 µM (inactive)
- GI50 [4]: 57.4 µM (inactive)
- GI50 [5]: > 100 µM (inactive)
- GI50 [7]: 8.13 µM (inactive)
- GI50 [6]: > 100 µM (inactive)

SMILES: CCCC(O)c1ccc2[nH]c3c(C)cc([N+](=O)[O-])c(C)c3c2c1 (configuration not stated)
- GI50 [1]: 54.1 µM (inactive)
- GI50 [2]: 21.3 µM (inactive)
- GI50 [3]: > 100 µM (inactive)
- GI50 [7]: > 100 µM (inactive)
- GI50 [6]: > 100 µM (inactive)
- GI50 [9]: > 100 µM (inactive)

SMILES: O=C1C=CC2(CCC23C=CC(=O)O3)O1 (configuration not stated)
- GI50 [1]: > 100 µM (inactive)
- GI50 [3]: > 100 µM (inactive)
- GI50 [4]: > 100 µM (inactive)
- GI50 [5]: 81.3 µM (inactive)
- GI50 [7]: > 100 µM (inactive)
- GI50 [8]: 71 µM (inactive)
- GI50 [6]: > 100 µM (inactive)
- GI50 [9]: > 100 µM (inactive)

SMILES: COC(=O)C1(C(=O)OC)CC(=O)c2cc3c(cc2-c2c(cc(OC)c(OC)c2OC)C1)OCO3
- GI50 [1]: > 211 µM (inactive)
- GI50 [2]: 124 µM (inactive)
- GI50 [3]: 0.0211 µM (active)
- GI50 [4]: > 211 µM (inactive)
- GI50 [5]: 137 µM (inactive)
- GI50 [7]: > 211 µM (inactive)
- GI50 [8]: > 211 µM (inactive)

SMILES: COC(=O)C1=C(C(=O)OC)C(C(=O)OC)C(C(=O)OC)=C1C(=O)OC
- GI50 [1]: > 100 µM (inactive)
- GI50 [2]: > 100 µM (inactive)
- GI50 [3]: > 100 µM (inactive)
- GI50 [4]: > 100 µM (inactive)
- GI50 [5]: > 100 µM (inactive)
- GI50 [8]: > 100 µM (inactive)

SMILES: COc1ccccc1NC(=O)C1=C(C)NC(C)=C(C(=O)Nc2ccccc2OC)C1c1ccc(C)cc1
- GI50 [2]: 40 µM (inactive)
- GI50 [3]: 76 µM (inactive)
- GI50 [4]: > 100 µM (inactive)
- GI50 [5]: 74.1 µM (inactive)
- GI50 [7]: 42.5 µM (inactive)
- GI50 [6]: 56.5 µM (inactive)
- GI50 [9]: 24.3 µM (inactive)

SMILES: N[C@H](C(=O)O)[C@@H](Cl)CC(=O)O
- GI50 [1]: > 100 µM (inactive)
- GI50 [2]: > 100 µM (inactive)
- GI50 [3]: > 100 µM (inactive)
- GI50 [4]: > 100 µM (inactive)
- GI50 [5]: > 100 µM (inactive)
- GI50 [7]: > 100 µM (inactive)
- GI50 [6]: > 100 µM (inactive)
- GI50 [9]: > 100 µM (inactive)

SMILES: COc1cccc2c1CCc1ccccc1CC2=O
- GI50 [1]: > 100 µM (inactive)
- GI50 [2]: > 100 µM (inactive)
- GI50 [3]: > 100 µM (inactive)
- GI50 [4]: > 100 µM (inactive)
- GI50 [5]: > 100 µM (inactive)
- GI50 [7]: > 100 µM (inactive)
- GI50 [9]: > 100 µM (inactive)

SMILES: CCOC(=O)C(CC/C=C\c1ccccc1)N1CCC[C@H]1C(=O)OC (some centres not stated)
- GI50 [1]: > 100 µM (inactive)
- GI50 [2]: > 100 µM (inactive)
- GI50 [3]: > 100 µM (inactive)
- GI50 [4]: > 100 µM (inactive)
- GI50 [5]: > 100 µM (inactive)
- GI50 [7]: > 100 µM (inactive)
- GI50 [6]: > 100 µM (inactive)
- GI50 [9]: > 100 µM (inactive)

SMILES: C[Si](C)(C)/C=C/CCC(C=O)(CCCl)c1ccccc1 (configuration not stated)
- GI50 [1]: 29.5 µM (inactive)
- GI50 [2]: 19.4 µM (inactive)
- GI50 [3]: 27.4 µM (inactive)
- GI50 [4]: 28.8 µM (inactive)
- GI50 [5]: 30.1 µM (inactive)
- GI50 [7]: 27.7 µM (inactive)
- GI50 [6]: 23.8 µM (inactive)
- GI50 [9]: 18.7 µM (inactive)

SMILES: Nn1c(-c2ccccc2)nc2ccc(Br)cc2c1=O
- GI50 [1]: 35.3 µM (inactive)
- GI50 [2]: 40.2 µM (inactive)
- GI50 [3]: 17.5 µM (inactive)
- GI50 [4]: > 100 µM (inactive)
- GI50 [5]: 34 µM (inactive)
- GI50 [7]: 89.5 µM (inactive)
- GI50 [8]: 59 µM (inactive)
- GI50 [6]: 85.7 µM (inactive)
- GI50 [9]: 13.7 µM (inactive)

SMILES: COC1=CC(=O)[C@]2(C)[C@H](C1=O)C(C)[C@H]2c1ccc(OC)cc1 (some centres not stated)
- GI50 [1]: > 100 µM (inactive)
- GI50 [2]: > 100 µM (inactive)
- GI50 [5]: > 100 µM (inactive)
- GI50 [7]: > 100 µM (inactive)
- GI50 [6]: > 100 µM (inactive)
- GI50 [9]: > 100 µM (inactive)

SMILES: O=C(Oc1ccc2c(-c3ccccc3)c(C(=O)Nc3ccc(Cl)cc3)c(=O)oc2c1)c1ccccc1
- GI50 [1]: > 100 µM (inactive)
- GI50 [2]: > 100 µM (inactive)
- GI50 [3]: > 100 µM (inactive)
- GI50 [4]: > 100 µM (inactive)
- GI50 [7]: > 100 µM (inactive)
- GI50 [9]: 58.1 µM (inactive)

SMILES: CC1CC(=O)c2c(ccc3c2C(=O)c2cccc(O)c2C3=O)C1 (configuration not stated)
- GI50 [1]: 2.94 µM (inactive)
- GI50 [2]: 4.48 µM (inactive)
- GI50 [3]: 6.58 µM (inactive)
- GI50 [5]: 4.31 µM (inactive)
- GI50 [7]: 1.41 µM (inactive)
- GI50 [8]: 13.2 µM (inactive)
- GI50 [6]: 7.29 µM (inactive)
- GI50 [9]: 12.6 µM (inactive)

SMILES: CCCCNC(=S)Nn1c(-c2ccccc2)nc2ccccc2c1=O
- GI50 [1]: > 100 µM (inactive)
- GI50 [2]: > 100 µM (inactive)
- GI50 [3]: > 100 µM (inactive)
- GI50 [5]: > 100 µM (inactive)
- GI50 [7]: 92.5 µM (inactive)

SMILES: O=C1C(Cl)C(c2cccc(O)c2)N1n1cnc2ccccc2c1=O (configuration not stated)
- GI50 [1]: > 100 µM (inactive)
- GI50 [2]: > 100 µM (inactive)
- GI50 [3]: 39.9 µM (inactive)
- GI50 [4]: > 100 µM (inactive)
- GI50 [5]: > 100 µM (inactive)
- GI50 [7]: > 100 µM (inactive)
- GI50 [6]: > 100 µM (inactive)
- GI50 [9]: > 100 µM (inactive)

SMILES: COc1cccc2c1C(=N)c1c(O)c3c(c(O)c1C2=O)C[C@@](O)(C(C)=O)C[C@@H]3OC1CC(N)C(O)C(C)O1 (some centres not stated)
- GI50 [1]: 2.2 µM (inactive)
- GI50 [2]: 0.0766 µM (active)
- GI50 [3]: 0.428 µM (active)
- GI50 [4]: 0.000374 µM (active)
- GI50 [5]: 0.542 µM (active)
- GI50 [7]: 0.486 µM (active)
- GI50 [8]: 0.728 µM (active)
- GI50 [6]: 2 µM (inactive)
- GI50 [9]: 0.202 µM (active)
